What was measured:
[1] = assay type: physicochemical; settings: longer irradiation times, green LED 520-530 nm, up to 5 min
Method: With 5 in our hands, we then started our probe characterization by determining the velocity of the photorelease reaction, i.e., the light‐triggered cleavage of the photocage, thereby delivering again the “active” inhibitor 1. To this end, a 50 µM solution of 5 in 10% acetonitrile in MS‐grade water was irradiated with a green LED lamp (λ = 520‐530 nm, 30 W) for the indicated time periods, and the release of the active inhibitor 1 was quantified via liquid chromatography‐mass spectrometry (LC–MS) analysis (Figure 1A). […] After 3 min, cleavage was quantitative (>99%). Importantly, the only products observed were the desired ‘free’ inhibitor 1 and the cleaved photogroup, indicating a clean activation to 1.
Figure 1 DPP inhibition by photo‐cleavable inhibitors. A) LC‐MS analysis of the photocleavage reaction of 5 after irradiation with green light. 50 µM of compound 5 was irradiated with a green LED lamp (λ = 520‐530 nm, 30 W) for up to 5 min, and the resulting reaction mixture was analyzed via LC‐MS. […] B) Resulting quantification of the photolysis of 5 based on peak areas depicted in A) (n = 3 technical replicates). […] Enzyme activity was determined by measuring the release of AMC from the substrate GP‐AMC. […]
Compound 5 was dissolved in DMSO. In order to quantify the effect of irradiation time on photocleavage of the BODIPY moiety, 50 µL aliquots of a 50 µM solution of 5 in 10% acetonitrile (ACN; VWR Chemicals, USA) in MS‐grade water (VWR Chemicals, USA) were irradiated for 0–5 min with a green LED lamp (λ = 520–530 nm, 30 W; Eurolite, Germany) at room temperature (RT) and gentle shaking (final DMSO concentration: 0.5%).
Quantification of inhibitor release was then determined via LC‐MS on an LTQ XL linear ion trap mass spectrometer (ITMS; Thermo Fisher Scientific, USA) coupled to a DIONEX UltiMate 3000 system (Thermo Fisher Scientific, USA), operated using Xcalibur software 4.4.16.14. […] Quantification was done using Freestyle v1.6. based on the UV spectra (λ = 254 nm) using the Avalon peak detection algorithm. […]

[2] = Cell viability assay (MTT); assay type: cell-based, human; settings: human, HEK293 cells, regardless of irradiation, read-out: Remaining viability
Method: (§1) Figure 2 Competitive ABPP with photo‐cleavable inhibitor 5 in HEK293 cells. A) Schematic overview of a competitive ABPP experiment. A proteome is pre‐incubated with a competitor, followed by a labeling reaction with an activity‐based probe (ABP). In the case of a photocaged inhibitor, the active compound can be released via irradiation. Target proteins of the competitor cannot be bound by the ABP, resulting in an absence of the respective protein band in‐gel analysis. Created in BioRender. Najdzion, M. (2025) https://BioRender.com/84zn8cb B) Gel‐based competitive ABPP experiment in HEK293 cell lysates with the broadband serine hydrolase ABP ≡FP or the DPP8/9‐directed ABP 2 and the photocaged inhibitor 5, at the indicated concentrations, after or without prior irradiation with green light for 5 min. The corresponding pre‐incubation time for 5 was 30 min. C) Corresponding in situ competitive ABPP experiment in HEK293 cell culture, again with 10 µM 2 for 1 h. Labeling was competed by pre‐incubation with 20 µM 5 for 1 h, followed by an activation of the photocaged inhibitor by irradiation for 5 min with a green LED lamp, if applicable. D) Green light treatment has no cytotoxic effect. HEK293 cells were irradiated with a green LED lamp in the presence of 0.5% DMSO for 5 min (‘light’), and cell viability was measured after 24 h. […] Data was normalized to the non‐irradiated control (‘dark’). E) Green light treatment leads to the release of the active DPP8/9 inhibitor. HEK293 cells were incubated with compound 1 or 5 for 24 h. For both compounds, cell viability was measured under ‘dark’ (not irradiated) and ‘light’ (irradiated for 5 min with a green LED lamp after the addition of the inhibitor) conditions. […] Data was normalized to the non‐irradiated DMSO control.
(§2) In order to validate target engagement in living cells and potential cytotoxic effects of green light treatment, we determined cell viability of HEK293 cells after 24 h inhibitor treatment with 5 with or without 5 min green light irradiation, as the application of DPP8/9 inhibitors at high concentrations and thus elimination of any residual DPP8/9 activity results in cytotoxicity.^[ [38], [39] ^– [40] ^] As a control, effects of green light treatment on cell viability were examined in the absence of any inhibitor after 24 h, again with or without 5 min irradiation (Figure 2D). […] Of note, no additional effect of the photocage on cell viability was observed. In summary, our cell viability studies confirm target engagement in live cells exclusively after photorelease, thereby again confirming the suitability of the photocaged DPP8/9 inhibitor 5 as a cell biological tool compound.
(§3) To investigate the cytotoxicity of compounds, 2 × 10^4 HEK293 cells were cultured in DMEM (+/+) on 96‐well flat‐bottom cell culture plates (Sarstedt, Germany) as described above. After 24 h, cells were treated with indicated concentrations of compounds (final DMSO concentration: 0.5%) and, if applicable, irradiated with a green LED lamp (λ = 520−530 nm; Eurolite, Germany) for 5 min. Control cells were treated with DMSO. Cell viability was measured 24 h after compound treatment. To this end, 25 µL Thiazolyl Blue Tetrazolium Bromide (MTT) solution (5 mg mL^−1 MTT (Sigma Aldrich, USA) in PBS (Gibco, USA)) was added to each well directly into the medium. After 3 h of incubation at 37 °C, the medium was removed and formazan crystals were dissolved by adding 150 µL DMSO (1 h, 37 °C, gentle shaking), followed by an absorbance measurement at 570 and 630 nm as a reference using a Tecan Spark 10 M multimode microplate reader (Tecan Group Ltd., Switzerland). Each experiment was performed with five replicates. Relative cell viability was expressed as a percentage relative to the DMSO‐treated control cells.

HEK293 cells = test: Cell viability assay (MTT); assay type: cell-based, human; settings: low micromolar range, 24 h
Method: as §1, §2, §3

DPP9 = DPP9 (Homo sapiens, UniProt Q86TI2); test: In vitro gel-based competitive ABPP in HEK293 cell lysates, 100 kDa band; set-up: endogenous in cells; host or cells: HEK293 (Cytion, Germany, 300192); settings: HEK293 lysate; 10 µM probe, 1 h; ca. 100 kDa (DPP9) and 70 kDa (PREP); regardless of irradiation
Method: Therefore, HEK293 cell lysates were pre‐incubated with 10 µM 5 or DMSO vehicle control for 30 min, followed by a labeling reaction with 2 µM of the serine hydrolase‐specific ABP fluorophosphonate‐alkyne (≡FP) or 10 µM 2 (Figure 2B). […] Of note, this band has been previously assigned as DPP9 (DPP8 would migrate in the same range, but is only expressed at low levels in the used cell line and therefore cannot be visualized by this approach).^[ [36] ^, [37] ^] […] Again, this labeling was observed regardless of prior irradiation. Subsequently, the competitive labeling experiment was conducted by pre‐incubation with compound 5, with or without subsequent irradiation.
as §1
For in vitro ABPP, cell lysates were generated from HEK293 cells grown on a 10 cm tissue dish. […] The cell lysates were cleared via centrifugation (30 min, 20,817 × g, 4 °C), and protein concentration was determined with a modified Bradford assay using Roti‐Nanoquant (Carl Roth, Germany). […]

Sequence of DPP9 (Q86TI2 whole entry): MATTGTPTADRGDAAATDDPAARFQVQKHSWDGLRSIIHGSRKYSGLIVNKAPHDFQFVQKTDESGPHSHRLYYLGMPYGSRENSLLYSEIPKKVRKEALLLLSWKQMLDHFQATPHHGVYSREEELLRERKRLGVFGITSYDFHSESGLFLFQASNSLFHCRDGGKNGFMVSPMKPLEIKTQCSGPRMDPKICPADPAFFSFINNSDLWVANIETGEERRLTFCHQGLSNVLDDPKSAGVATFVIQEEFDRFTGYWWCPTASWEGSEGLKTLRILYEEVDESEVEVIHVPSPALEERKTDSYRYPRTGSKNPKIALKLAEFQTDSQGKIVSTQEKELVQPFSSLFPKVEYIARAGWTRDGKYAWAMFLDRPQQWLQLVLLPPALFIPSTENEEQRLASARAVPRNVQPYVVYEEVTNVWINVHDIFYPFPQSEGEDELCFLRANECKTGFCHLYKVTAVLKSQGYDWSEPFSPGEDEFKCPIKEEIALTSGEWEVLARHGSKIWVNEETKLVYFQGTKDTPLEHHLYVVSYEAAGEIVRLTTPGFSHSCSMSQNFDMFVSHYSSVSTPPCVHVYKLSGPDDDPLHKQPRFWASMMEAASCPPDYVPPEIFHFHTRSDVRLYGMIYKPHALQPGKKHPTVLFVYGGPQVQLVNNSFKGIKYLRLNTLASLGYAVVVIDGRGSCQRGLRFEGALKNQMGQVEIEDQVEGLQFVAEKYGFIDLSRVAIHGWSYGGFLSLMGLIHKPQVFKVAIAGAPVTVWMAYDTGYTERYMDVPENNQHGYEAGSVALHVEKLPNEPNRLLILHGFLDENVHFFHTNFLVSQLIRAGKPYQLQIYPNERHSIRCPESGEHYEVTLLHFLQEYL

## CCCCCc1ccc(SCCP(=O)(OCC)N2CCC[C@H](N)C2=O)cc1 (some centres unmarked) [Compound 1]
[1]
  Photostability under photorelease conditions (in words): did not lead to further side products
[2]; 25 µM
  viability at 24 h, 25 µM: ~65%
[2]; 50 µM
  viability at 24 h, 50 µM: ~15%
HEK293 cells
  Effect on cell viability (in words): did not significantly affect cell viability

## C#CCCCP(=O)(OCC)N1CCC[C@H](N)C1=O (some centres unmarked) [Compound 2]
DPP9
  Bands labeled by the probe in ABPP (in words): two bands
